From publication PMC5061317, “Transactivation Assays to Assess Canine and Rodent Pregnane X Receptor (PXR) and Constitutive Androstane Receptor (CAR) Activation” (PLoS ONE, 2016)
Values joined by “and” are separate entries in the source; they are usually repeats but may differ in a detail not shown here. Equal values may be shown once. Where a name gives a salt, the structure may show the parent alone.

What was measured:
[1] = target: T1, rat CAR3 (Rattus norvegicus, UniProt Q9QUS1, INS280APYLT); test: Rat CAR3 transactivation assay with CYP3A4 promoter/enhancer reporter (rCAR3/3A4); assay type: cell-based; conditions: 10 μM, 48 h, above DMSO treated cells, mean ± SE
T1 construct: expressed in transfected cells; host or cells: HepG2 (transient transfection)
T1 sequence (Q9QUS1 with tags, fused parts or gaps INS280APYLT): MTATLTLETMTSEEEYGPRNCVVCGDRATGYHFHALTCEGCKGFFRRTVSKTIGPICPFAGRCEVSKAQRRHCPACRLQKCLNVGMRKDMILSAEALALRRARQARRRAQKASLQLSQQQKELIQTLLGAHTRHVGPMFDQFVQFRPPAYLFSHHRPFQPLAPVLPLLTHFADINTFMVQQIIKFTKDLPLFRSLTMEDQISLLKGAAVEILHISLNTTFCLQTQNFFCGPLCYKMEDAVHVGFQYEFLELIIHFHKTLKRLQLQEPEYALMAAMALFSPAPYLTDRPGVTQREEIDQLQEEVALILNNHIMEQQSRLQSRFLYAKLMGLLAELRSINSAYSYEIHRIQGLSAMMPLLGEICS
T1 sequence (P19793 1-462 partner): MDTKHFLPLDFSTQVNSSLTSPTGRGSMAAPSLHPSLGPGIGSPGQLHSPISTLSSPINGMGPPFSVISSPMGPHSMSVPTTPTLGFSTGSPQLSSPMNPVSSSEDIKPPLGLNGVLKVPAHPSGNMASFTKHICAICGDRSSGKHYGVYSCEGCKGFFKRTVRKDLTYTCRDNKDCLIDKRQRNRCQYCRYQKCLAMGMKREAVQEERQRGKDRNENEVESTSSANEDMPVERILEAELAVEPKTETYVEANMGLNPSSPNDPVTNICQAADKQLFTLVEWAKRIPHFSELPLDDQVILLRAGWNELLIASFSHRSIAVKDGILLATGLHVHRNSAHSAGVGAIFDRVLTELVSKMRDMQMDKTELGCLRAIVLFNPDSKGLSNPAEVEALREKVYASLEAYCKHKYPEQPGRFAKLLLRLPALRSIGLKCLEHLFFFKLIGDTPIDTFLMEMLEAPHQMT
Description: (§1) To construct an expression vector harboring canine CAR3, reference CAR sequence (CAR1) for canine (Accession number: FJ202015) was amplified from C. familiaris liver cDNA. PCR conditions were 98°C for 2 min, 30 cycles of 98°C for 30 sec and 72°C for 1 min, followed by 72°C for 7 min and cooling to 4°C. The resulting PCR product was cloned into the pCR2.1 vector for sequence analysis and subsequently cloned into a pCDNA 3.1 expression vector (Life Technologies, Carlsbad, CA). […] Canine CAR1 was mutated to obtain CAR3 by introducing […] motif. This was performed using forward primer: 5’- […] -3’ and reverse primer: 5’- […] -3’ in concert with QuikChange Lightning mutagenesis kit (Agilent) according to manufacturer’s instructions. The presence of correct canine CAR3 was verified by sequence analysis. […]
(§2) Assessment of cell viability and transcriptional activation was performed in the same wells using the CellTiter-Fluor cell viability assay and ONE-Glo Luciferase assay. Fluorescence was determined on a BioTek Synergy 2 Luminometer (BioTek Instruments, Winooski, VT) with excitation at 400 nm and emission at 510 nm. Following viability determination luminescence was monitored.
(§3) Fluorescent light units were utilized to normalize for viable cell number in the luciferase (transcriptional activation) assay and expressed as the average of three determinations/chemical agent and concentration. […]

[2] = target: T1, rat CAR3; test: Rat CAR3 transactivation assay with CYP2B6 promoter/enhancer reporter (rCAR3/2B6); assay type: cell-based; conditions: 10 μM, 48 h, above DMSO treated cells, mean ± SE
Description: as §1, §2, §3

[3] = system: canine PXR; test: Canine PXR transactivation assay (HepG2 transiently transfected, CYP3A4 luciferase reporter); conditions: 48 h
Description: To generate canine PXR (Accession number: XM_535750.3) with a start codon replicating that of human PXR (Accession number: AY091855), a Canis lupus familiaris liver cDNA was employed as the template. PCR conditions were 98°C for 2 min, 35 cycles of 98°C for 1 min, 59°C for 1 min and 72°C for 1 min 45 sec, followed by 72°C for 7 min and cooling to 4°C.
(§4) HepG2 cells were seeded in 10-cm cell culture dishes and incubated until 60–70% confluency (about 5 days). For transfections, dishes were rinsed with phosphate buffered saline (PBS) and cells incubated for 1–4 h in OptiMEM (Life Technologies). LipofectAMINE 2000 (Life Technologies) was used at a 2:1 ratio (μl of transfection reagent to μg of DNA). For transfections involving canine and rat CAR3, 24 μg of total DNA was used (9 μg of luciferase reporter construct, 7.5 μg of either empty expression vector or CAR expression construct and 7.5 μg of the hRXRα construct). For transfections with the canine PXR, 21 μg of total DNA was employed (12 μg of luciferase reporter containing CYP3A4 proximal and distal enhancers and 9 μg of either empty expression vector or plasmid containing canine PXR). Transfected HepG2 cells were incubated at 37°C, 5% CO2 for 19–24 h. The cells were then trypsinized with TrypLE Express solution (Life Technologies) and either frozen in the presence of 10% DMSO for future use or seeded into clear bottom 96-well assay plate at a density of 5x10^4 cells/well and incubated at 37°C, 5% CO2 for 24 h.
(§5) For luciferase reporter assays involving transient transfectants, either freshly transfected cells or cells that have been stored in liquid N2 were seeded in 96-well plates as described above. For the rPXR stable cell line, cells were seeded into a 96-well plate at a density of 2x10^4 cells/well. Following a 24 h recovery, transiently transfected cells or stably integrated rat PXR cells were treated with various chemicals dissolved in DMSO in triplicate wells. Phenobarbital was the only compound that was dissolved in sterile water. […] All treatments were performed for 48 h.
as §2
(§6) Fluorescent light units were utilized to normalize for viable cell number in the luciferase (transcriptional activation) assay and expressed as the average of three determinations/chemical agent and concentration. The average luminescent units were divided by the average for solvent control to determine the fold activation. Data is expressed as mean ± standard error (SE) of three separate experiments performed in triplicate. The data was further normalized by dividing the values for each chemical by values obtained from assays with empty expression vector control. One-way multiple comparison ANOVA test in concert with Uncorrected Fisher’s LSD posttest was used to compare treatment groups with the negative controls. The significance threshold was set at p < 0.01. All statistical analyses were performed using Prism V6.0c (GraphPad, San Diego, CA). To determine receptor activation kinetics for positive controls, EC50 and EMAX values were calculated using nonlinear regression analysis of typical log dose-response curves using Prism V6.0c (GraphPad, San Diego, CA).

[4] = target: T2, rat PXR (Rattus norvegicus, UniProt Q9R1A7); test: Rat PXR transactivation assay (rPXR stable cell line, CYP3A4 luciferase reporter); conditions: 48 h
T2 sequence (Q9R1A7 1-431): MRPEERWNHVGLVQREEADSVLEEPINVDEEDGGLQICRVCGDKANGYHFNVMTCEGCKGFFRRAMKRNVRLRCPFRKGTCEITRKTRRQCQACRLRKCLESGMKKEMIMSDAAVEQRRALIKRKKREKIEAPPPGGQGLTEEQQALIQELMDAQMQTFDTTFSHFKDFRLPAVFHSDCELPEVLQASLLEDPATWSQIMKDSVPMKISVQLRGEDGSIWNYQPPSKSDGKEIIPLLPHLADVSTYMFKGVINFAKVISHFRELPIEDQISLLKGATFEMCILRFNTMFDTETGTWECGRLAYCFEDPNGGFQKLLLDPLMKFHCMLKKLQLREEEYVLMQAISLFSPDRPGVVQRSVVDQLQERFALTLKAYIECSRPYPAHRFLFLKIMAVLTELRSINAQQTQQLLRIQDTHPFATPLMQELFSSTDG
Description: Human hepatoma cell line, HepG2 was obtained from American Type Culture Collection (Rockville, MD) and maintained in DMEM supplemented with 10% FBS, 100 U/ml penicillin and 100 μg /ml streptomycin at 37°C, 5% CO2. The stable cell line, rPXR, harboring rat PXR and the CYP3A4 promoter and enhancer linked to luciferase was produced and maintained as described previously.
as §5, §2, §6

[5] = target: canine CAR3 (Canis lupus familiaris, UniProt B6E443, INS263APYLT); conditions: 10 μM, 48 h, above DMSO treated cells, mean ± SE
Description: To construct an expression vector harboring canine CAR3, reference CAR sequence (CAR1) for canine (Accession number: FJ202015) was amplified from C. familiaris liver cDNA. PCR conditions were 98°C for 2 min, 30 cycles of 98°C for 30 sec and 72°C for 1 min, followed by 72°C for 7 min and cooling to 4°C. The resulting PCR product was cloned into the pCR2.1 vector for sequence analysis and subsequently cloned into a pCDNA 3.1 expression vector (Life Technologies, Carlsbad, CA). […] Canine CAR1 was mutated to obtain CAR3 by introducing […] motif. This was performed using forward primer: 5’- […] -3’ and reverse primer: 5’- […] -3’ in concert with QuikChange Lightning mutagenesis kit (Agilent) according to manufacturer’s instructions. The presence of correct canine CAR3 was verified by sequence analysis. CYP2B6 luciferase reporter vector containing the XREM-PBREM promoter and enhancer was obtained from Dr. Omiecinski (Penn State University) and has been described previously. To generate rat CAR3, a plasmid containing reference CAR (CAR1) underwent mutagenesis as described above using 5’- […] -3’ as the forward primer and 5’- […] -3’ as the reverse primer. […] Firefly luciferase reporter construct harboring CYP3A4 proximal and distal enhancer regions has been described earlier.
as §4, with “The cells were then trypsinized with TrypLE Express solution (Life Technologies) and either frozen in the presence of 10% DMSO for future use or seeded into clear bottom 96-well assay plate at a density of 5x10^4 cells/well and incubated at 37°C, 5% CO2 for 24 h.” left out
as §2, §3

[6] = 10 μM, above DMSO treated cells, mean ± SE
[7] = 100 μM, above DMSO treated cells, mean ± SE
[8] = panel of 19 compounds, concentration not given

Sequence of canine CAR3 (B6E443 entry or part of it INS263APYLT, one chain of several): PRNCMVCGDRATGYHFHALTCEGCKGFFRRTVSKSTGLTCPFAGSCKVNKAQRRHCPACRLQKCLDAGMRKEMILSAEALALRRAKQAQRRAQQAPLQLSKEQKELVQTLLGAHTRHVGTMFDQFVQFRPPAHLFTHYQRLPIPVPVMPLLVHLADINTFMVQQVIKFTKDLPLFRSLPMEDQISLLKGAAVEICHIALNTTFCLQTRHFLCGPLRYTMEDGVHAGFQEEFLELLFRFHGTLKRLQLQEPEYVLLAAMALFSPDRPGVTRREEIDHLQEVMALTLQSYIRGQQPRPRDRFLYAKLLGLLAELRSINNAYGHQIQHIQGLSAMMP

Compound: O=c1cc(-c2ccccc2)oc2c1ccc1ccccc12 [ANF, α-naphthoflavone]
- Rat CAR3 Fold Activation, CYP3A4 promoter and enhancer [1]: negligible effect
- Rat CAR3 Fold Activation, CYP2B6 promoter and enhancer [2]: 3.4 ± 0.8 fold and 3.4 ± 0.8^c fold

Compound: Clc1ccc(-c2nc3sccn3c2C=NOCc2ccc(Cl)c(Cl)c2)cc1 [CITCO, 6-(4-Chlorophenyl)imidazo[2,1-b][1,3]thiazole-5-carbaldehyde O-(3,4-dichlorobenzyl)oxime]
- Canine PXR Fold Activation [3, 6]: 5.4 ± 2.1 fold

Compound: CCCCC(CC)COC(=O)c1ccccc1C(=O)OCC(CC)CCCC (stereo not shown) [DEHP, bis (2-ethylhexyl) phthalate]
- Rat PXR Fold Activation [4, 6]: -
- Canine CAR3 Fold Activation, CYP2B6 promoter and enhancer [5]: 4.3 ± 0.8 fold and 4.3 ± 0.8^c fold
- Canine CAR3 Fold Activation, CYP3A4 promoter and enhancer [5]: significant activation only when the CYP2B6 promoter was used

Compound: O=C1Nc2ccc(Cl)cc2[C@@](C#CC2CC2)(C(F)(F)F)O1 [Efavirenz, efavirenz]
- Rat PXR Fold Activation ([4]; rat, 10 μM): 7.5 ± 2.3 fold
- Rat CAR3 Fold Activation, CYP3A4 promoter and enhancer [1]: 7.4 ± 3.3 fold
- Rat CAR3 Fold Activation, CYP2B6 promoter and enhancer [2]: 3.9 ± 0.6 fold

Compound: C=C[C@@]1(C)CC(=O)[C@]2(O)[C@@]3(C)[C@@H](O)CCC(C)(C)[C@@H]3[C@H](O)[C@H](OC(C)=O)[C@@]2(C)O1 [Forskolin, forskolin]
- Rat PXR Fold Activation ([4]; rat, 10 μM): 5.8 ± 0.5 fold
- Canine PXR Fold Activation [3, 6]: 5.6 ± 1.4 fold

Compound: COc1ccc2[nH]c([S+]([O-])Cc3ncc(C)c(OC)c3C)nc2c1 (stereo not shown) [Omeprazole, omeprazole]
- Rat PXR Fold Activation ([4]; rat, 100 μM): 9.8 ± 0.9 fold
- Canine PXR Fold Activation [3, 7]: 9.6 ± 1.3 fold

Compound: CCC1(c2ccccc2)C(=O)NC(=O)NC1=O [Phenobarbital, phenobarbital sodium salt]
- Rat PXR activation ([4]; 1 mM, vehicle water): failed to elicit significant activation
- Rat PXR activation [4, 8]: failed to elicit a significant activation
- Canine PXR Fold Activation [3, 8]: failed to elicit a significant activation

Compound: CC(=O)[C@H]1[C@H](C#N)C[C@H]2[C@@H]3CC=C4C[C@@H](O)CC[C@]4(C)[C@H]3CC[C@@]21C [Pregnenolone 16α carbonitrile, pregnenolone-16 α -carbonitrile]
- Emax, rat PXR activation ([4]; dose-response curve, above 0.1% DMSO): 11.4 fold
- EC50 ([4]; read-out: EC50, rat PXR activation, dose-response curve, nonlinear regression): 140 nM

Compound: CCOP(=O)(OCC)C(=Cc1cc(C(C)(C)C)c(O)c(C(C)(C)C)c1)P(=O)(OCC)OCC [SR12813, tetraethyl 2-(3,5-di-tert-butyl-4-hydroxyphenyl)ethenyl-1,1-bisphosphonate]
- Rat PXR Fold Activation [4, 6]: 6.1 ± 0.6 fold
- Canine PXR Fold Activation [3, 6]: 60.1 ± 3.1 fold
- Emax, canine PXR activation ([3]; dose-response 0.1 to 30 μM, above 0.1% DMSO): 60.3 ± 5.5 fold and 60.3 fold
- EC50 ([3]; read-out: EC50, canine PXR activation, dose-response 0.1 to 30 μM, nonlinear regression): 1900 ± 200 nM
- Canine CAR3 Fold Activation, CYP2B6 promoter and enhancer [5]: activation only in the presence of the CYP3A4 promoter
- Canine CAR3 Fold Activation, CYP3A4 promoter and enhancer [5]: 3.1 ± 0.7 fold and 3.1 ± 0.7^d fold

Compound: Clc1cnc(Oc2ccc(Oc3ncc(Cl)cc3Cl)cc2)c(Cl)c1 [TCPOBOP, 1,4-Bis-[2-(3,5-dichloropyridyloxy)]benzene, 3,3′,5,5′-Tetrachloro-1,4-bis(pyridyloxy)benzene]
- Rat PXR Fold Activation [4, 6]: failed to elicit significant activation

Compound: O=C1NC(=O)C(c2ccccc2)(c2ccccc2)N1 [phenytoin]
- Rat PXR Fold Activation [4, 7]: failed to elicit significant activation
- Rat PXR activation [4, 8]: failed to elicit a significant activation
- Canine PXR Fold Activation [3, 8]: failed to elicit a significant activation
